# Results from US12501917B2, “Methods and compositions for treating intestinal disorder” (MARS, INCORPORATED, priority 2019, dated 2025).
# System: canine fecal microbiome
# Details: dog, in vivo
smiles,measurement,value
Cc1ncc([N+](=O)[O-])n1CCO [metronidazole],"dysbiosis (community evenness, distance from healthy controls, potential pathogens)",exacerbated dysbiosis
